According to US20040009899A1, “Treating dominant disorders” (priority 2002, published 2004):

Columns and labels:
GAPDH = assay: Western immunoblot of GAPDH (non-targeted gene) in PNA-treated R6/1 mice; assay type: in vivo, mouse; settings: any animal tested
Method: Following the treatment period, mice were anesthetized with ether and sacrificed by cervical dislocation. Whole brains and livers were removed and placed in 0.9% saline. Striatum tissue was dissected from whole brains, and liver tissue was finely minced. The tissues were placed in separate 2 mL microfuge tubes on dry ice and then suspended in 20 volumes of RIPA buffer (50 mM Tris pH 8, 150 mM NaCl, 1 mM EDTA, 1 mM EGTA, 0.5% sodium deoxycholate, 0.1% SDS, 1% TritonX-100, 2 μg/mL leupeptin, 2 μg/mL aprotinin, 1 μg/mL pepstatin, 1 mM phenylmethylsulfonylfluoride) per gram of tissue. Suspended tissues were homogenized by sonication, and the homogenates were clarified by centrifugation at 12,000×g for 20 minutes at 4° C. Following centrifugation, the supernatants were removed and protein concentrations were quantified by Bradford assays using a BSA standard.
Immunoblotting: Supernatants from the tissue homogenates were mixed with 1/6 volume of 6×SDS sample buffer (350 mM Tris pH 6.8, 10% SDS, 30% glycerol, 15% 2-mercaptoethanol, 0.012% bromophenol blue). Equal amounts of protein were directly loaded onto 10% acrylamide/0.05% bisacrylamide gels without heat denaturation. […] Protein bands were detected on film by chemiluminescence. […]

[1] = tested on: endogenous mouse Hdh allele; assay: Western immunoblot of endogenous mouse htt expression in PNA-treated R6/1 mice; assay type: in vivo; settings: any tissue examined (striatum, liver), any tested time point (4 or 6 days)
Method: Cannulation and microsurgery—method 1: B6CBA, R6/1, and R6/2 mice were obtained from The Jackson Laboratory (Bar Harbor, Me.). Mice were anesthetized via intraperitoneal (i.p.) injection with 100 mg/kg of a ketamine/xylazine solution containing 8 mg/mL ketamine and 1 mg/mL xylazine in 0.9% saline. Once anesthetized, each mouse was cannulated. Each anesthetized mouse was placed in a Stoelting Stereotaxic Frame with a mouse adapter (Stoelting Instruments, Wood Dale, Ill.). An incision was made using a scalpel, and the skin and tissue were pulled back with swabs to reveal the skull. The cannulation site was positioned for optimum access to the ventricle, at coordinates AP −0.2 mm, Horiz −1 mm from bregma. A cannula entry port and two bone screw ports were opened in the skull using a Dremel Flex Shaft Drill (Stoelting Instruments) with a 2.1 mm burr for the guide cannula port and a 0.7 mm burr for the bone screws (Fine Science Tools, Foster City, Calif.). Two 4.0 mm long bone screws (0.85 diameter) were placed far enough into the bone screw ports to fasten securely. […]
Following the treatment period, mice were anesthetized with ether and sacrificed by cervical dislocation. […] Following centrifugation, the supernatants were removed and protein concentrations were quantified by Bradford assays using a BSA standard. […]

mice = assay: Toxicity observation (behavior, weight, motor function) during intraventricular PNA treatment; assay type: in vivo; settings: 1.0 μL (25 μg/μL) into the ventricle every other day
Method: Animal treatment and tissue preparation: Aliquots of 1.0 μL (25 μg/μL) of a PNA oligomer specific for the expanded human HD allele (HDs) or a scrambled control PNA (HDscr) were administered into the ventricle every other day by injection via the cannula.

Substance: HDs: sense PNA oligomer, 14 residues, 5′-GGACTGCCGTGCCG-3′ (SEQ ID NO:3), specific for the expanded human HD allele (all peptide nucleic acid (PNA))
- inhibition of non-targeted genes such as GAPDH (GAPDH): No measurable inhibition
- effect on expression of the endogenous mouse Hdh allele [1]: Neither HDs nor HDscr had any effect
- toxicity as measured by weight or motor function relative to untreated animals (mice): no effects of toxicity
